Here are results for three compounds from patent publication US20090192198A1, “INHIBITORS OF THE 11-BETA-HYDROXYSTEROID DEHYDROGENASE TYPE 1 ENZYME” (Abbott Laboratories, priority 2005, published 2009).

In assay [1] the test system is serotonin (5-HT) levels (medial prefrontal cortex, hippocampus). Kind of assay: Microdialysis, cortical/hippocampal serotonin release. The class given is in vivo, rat. The following applies: single administration 30 mg/kg, p.o.; medial prefrontal cortex and hippocampus (FIGS. 7a, 7b). As to the method: (§1) Microdialysis studies (resting or challenging conditions) in freely moving, male Sprague Dawley rats (Janvier, 295-315 g, n=5-8/treatment group) were performed using stereotactically instrumented microdialysis probes (CMA/12-14-2): mPFC, hippocampus. Aliquots of the same microdialysate fractions (6 before, and 9-12 after compound administration) were analyzed either for acetylcholine or for serotonin by HPLC and electrochemical detection.
This is a feature shared by marketed anti-depressive drugs and might indicate the potential use for 11β-HSD1 inhibitors as antidepressants/anxiolytic drugs. These findings remain to be confirmed by (i) investigating 11β-HSD1 inhibitors from different chemotype(s) in selected microdialysis studies and/or (ii) in animal models of depression/anxiety.

For assay [2], the system named is acetylcholine release (mPFC, hippocampus). Kind of assay: Microdialysis, cortical/hippocampal acetylcholine release. The class given is in vivo, rat. The following applies: single administration 30 mg/kg, p.o. The protocol: as §1
Assay [3] has as its system Fisher rats. Put plainly: Rat wake EEG power spectrum and REM sleep parameters. The class given is in vivo. The following applies: 30 mg/kg, 3 times at 24, 26, and 0.1 hours before measurement. The protocol: EEG of Fisher rats (n=8/group) with chronically implanted supracortical EEG-electrodes were analyzed for an 8 h period. Intraindividual drug-induced changes of power spectra were analyzed. For REM sleep the number of REM episodes, latency to first REM, and total REM time was analyzed.

The test system of assay [4] is Male Sprague Dawley rats. Put plainly: Short-term social recognition memory in the rat. The class given is in vivo. The following applies: 30 mg/kg po at 24, 18 and 1 hour before first juvenile exposure, vs vehicle control rats (FIG. 4). As to the method: Social memory and social cognition are impaired in disorders such as Alzheimer's disease and schizophrenia. One of the more commonly used preclinical models of social recognition memory is short-term social recognition in the rat, a model of short-term memory based on the recognition of a juvenile rat by an adult rat. […] The juvenile rat is then removed and reintroduced 120 min later, and interactive behavior of the adult rat is again monitored. If memory has been lost over the interval between trials 1 and 2, the extent of interaction is equal (expressed as a ratio of investigation time of T1/T2) and the ratio will be close to 1. However, if the adult remembers the juvenile, the investigation ratio declines. To test for non-specific effects, a novel juvenile is introduced at 120 minutes instead of the familiar juvenile. […]
Rats were pre-dosed po at 24, 18 and 1 hour before first juvenile rat exposure with vehicle, or Compound CC (30 mg/kg). […] The time the adult spent exploring (sniffing, grooming, close following) the juvenile during this test session was recorded, and defined as the first investigation duration. […] Data were analyzed using a one-way analysis of variance. If there was a significant effect, subsequent post hoc significance was determined using Dunnett's multiple comparison testing (p<0.05 was regarded as significant).

Assay [5] relates to Male CD-1 mice. Put plainly: 24-hour inhibitory avoidance in mice, subchronic (3 administration) dosing. The class given is in vivo. The following applies: 30 mg/kg PO, BID the day before training and one hour before training, vs vehicle control mice (FIG. 3). The protocol: Male CD-1 mice were obtained from Charles River, Wilmington, Mass. Mice were group-housed 10 per cage. The body weight upon arrival was 20-25 g. Food and water were available ad libitum except during experiments. Animals were acclimated to the animal facilities for a period of at least one week prior to commencement of experiments. Animals were tested in the light phase of a 12-hour light:12-hour dark schedule (lights on 0600 hours).
Compound AA and Compound BB were synthesized at Abbott Laboratories. […] Compound AA was administered in a cloudy, fine suspension, while Compound BB was administered in a solution.
On training day, mice were injected with Compound AA, Compound BB or vehicle one-hour PO before training. One hour following injection (start of training) mice were subjected to a training session in which they were placed in a lighted compartment of a two-compartment chamber (Gemini apparatus, San Diego Instruments, San Diego, Calif.) with a manually operated gate separating the compartments. […] Twenty-four hours later mice were again tested in the same apparatus, except without shock, and the transfer latency from the lighted to the dark compartment recorded and used as an index of memory for the punished response 24 hours earlier. […] Data were analyzed using Mann Whitney U comparisons. […]

Assay [6] relates to Male CD-1 mice. Kind of assay: 24-hour inhibitory avoidance task in mice, drug-in-diet dosing. In kind it is in vivo. The following applies: drug-in-diet 10 and 100 mg/kg/day in Western diet, tested from day 17, vs vehicle control mice (FIG. 1). As to the method: The 24-hour inhibitory avoidance task in mice is a measure of one-trial learning and memory consolidation in response to a discrete aversive event (foot-shock). Mice are first placed in an illuminated compartment of a two-compartment apparatus. Mice will naturally step through into an adjoining dark compartment, which they prefer. When the mice enter the dark they receive a mild foot-shock. To assess memory, mice are tested 24 hours later and the length of time the animal refrains from entering the dark compartment is recorded (higher latencies indicate improved memory for the aversive event).
(§2) Male CD-1 mice were obtained from Charles River, Wilmington, Mass. Mice were group-housed 10 per cage. The body weight upon arrival was 20-25 g. Food and water were available ad libitum except during experiments. […]
On the first day of testing (17 days after drug-in-diet was presented) mice were removed from the colony room in their home cage, brought to the testing room, and left undisturbed for 2 hours prior to testing initiation. […] The latency to enter the dark chamber was recorded and was the dependent variable measured for assessing memory retention (latency is defined as entry of the whole mouse; all 4 paws on the grids in the dark side, plus the tail in the chamber for 5 sec; 180 sec is maximum latency). Data were analyzed using Mann Whitney U comparisons. […]

Assay [7] relates to phosphorylated CREB. Kind of assay: Phosphorylated CREB immunohistochemistry in brain after food-in-diet dosing. The class given is in vivo, mice. The following applies: 18 days food-in-diet, 10 and 100 mg/kg/day (FIG. 2). As to the method:
In vivo signaling studies were conducted to examine the biochemical pathways that may be mechanistically involved in the cognitive efficacy associated with Compound AA. An important signaling process that serves as a biochemical correlate of synaptic plasticity underlying learning and memory is the phosphorylation of CREB (c-AMP-response element binding protein), a transcription factor critical to long-term memory.
as §2
Following perfusion, brains were removed and postfixed in 20% sucrose-PBS (phosphate buffered saline) overnight and subsequently cut on a cryostat (40 μm coronal sections) and collected as free-floating sections in PBS. […] Immuno-reactivity (IR) was quantified using an image analysis system (Leica, Quantimet 500) that determined number and/or area of peroxidase substrate-positive stained neurons from digitized photomicrographs according to a pixel gray level empirically determined prior to analysis. Overall statistical significance was determined using a one-way ANOVA, with Dunnett's post hoc analyses used to determine significance (p<0.05 was considered significant).

Assay [8] concerns HSD-1. Kind of assay: Monkey ex vivo HSD1 activity (cortisone to cortisol in harvested tissue). Also noted: species or system Cynomolgus Monkeys. As to the method: Harvested tissues (approximately 150 mg) were minced into small, 2 mm pieces in the presence of 5× volume of incubation buffer. Cortisone at final concentrations of 0, 3, 10 or 30 μM was added to each well. Cell culture plates with tissues were incubated at 37° C. for three hours. Two-hundred μL of tissue culture supernatant was then removed and spun at 1000 rpm in an Eppindorf tube, and then 100 μL of resulting supernatant was aliquotted into two tubes for LCMS analysis of cortisol.

For `O=C(CN1CCN(c2ccc(C(F)(F)F)cn2)CC1)NC1C2CC3CC1CC(O)(C3)C2` (stereo not shown) [Compound CC, N-[(E)-5-Hydroxy-2-adamantyl]-2-{4-[5-(trifluoromethyl)pyridin-2-yl]piperazin-1-yl}acetamide], the “microdialysate serotonin (5-HT) levels” value in assay [1] is reported as “long-lasting increase of serotonin (5-HT) levels”. Moreover, in assay [2] (acute), the “ACh release under resting conditions” value is given as “did not change ACh release”. Also, in assay [2] (cortex and hippocampus (FIGS. 6a-6c)), the “ACh release under challenging conditions (home cage to novel cage and back)” value was “did not induce any further stimulation of ACh release”. The “reduction of total sleep time” value in assay [3] (8 h period) amounted to 10%. Moreover, the “reduction of number of REM sleep episodes” value in assay [3] (8 h period (FIG. 5a)) is given as 16%. In addition, the “reduction of REM time” value in assay [3] (8 h period (FIG. 5b)) was found to be 23%. Also, the “increase of latency to first REM” value in assay [3] (8 h period (FIG. 5c)) is reported as 62%. Moreover, in assay [4], the “short-term memory retention (social recognition)” value is recorded as “significant improvement in short-term memory retention”.
As for `CC(C)(Oc1ccc(Cl)cc1)C(=O)NC1C2CC3CC1CC(/C(N)=N/O)(C3)C2` (stereo not shown) [P, N-{(E)-5-[(Z)-Amino(hydroxyimino)methyl]-2-adamantyl}-2-(4-chlorophenoxy)-2-methylpropanamide], the “memory retention (transfer latency), 24-hour inhibitory avoidance” value in assay [5] is recorded as “significant improvement in memory retention”.
As to `CC(C)(Oc1ccc(F)cc1Cl)C(=O)NC1C2CC3CC1CC(S(C)(=O)=O)(C3)C2` (stereo not shown) [S, 2-(2-Chloro-4-fluorophenoxy)-2-methyl-N-[(E)-5-(methylsulfonyl)-2-adamantyl]propanamide], in assay [6], the “memory retention (Mean Transfer Latency), 24-hour inhibitory avoidance” value is recorded as “significant improvement in memory retention”. For the same compound, the “phosphorylated CREB immuno-reactivity” value in assay [7] was “increase in phosphorylated CREB”. Further, the “ex vivo inhibition of monkey brain, fat and liver HSD1” value in assay [8] (2.5 and 16 hours following a single oral 10 mg/kg dose) is on record as “potent ex vivo inhibition”. The “HSD-1 ex vivo activity, Mean % Veh Control” value stood at 30% in assay [8] (Cerebral Cortex, 16 hours after single 10 mg/kg oral dose); 42% in assay [8] (Hippocampus, 16 hours after single 10 mg/kg oral dose); 38% in assay [8] (Liver, 2.5 hours after single 10 mg/kg oral dose); 9% in assay [8] (Liver, 16 hours after single 10 mg/kg oral dose); 90% in assay [8] (Mesenteric Fat, 2.5 hours after single 10 mg/kg oral dose); 50% in assay [8] (Mesenteric Fat, 16 hours after single 10 mg/kg oral dose). Moreover, the “memory retention (transfer latency), 24-hour inhibitory avoidance” value in assay [5] was “significant improvement in memory retention”.
